Experimental data reported in the supplement of paper PMC11451515.

Legend:
Conditions in all cases: 48 h
[1] = tested on: NOMO1; assay: cell viability relative to DMSO control; higher = less cytotoxic
Procedure, shortened: (§1)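 Viability is a per-plate percentage relative to DMSO wells, with cell-free wells as background. CellTiter-Glo One luminescence was read after 48 h at 37°C on 1536-well plates (5 μl) of NOMO1 or SEM (500 cells/well) or P12-Ichikawa (1000 cells/well) leukemia cells. The cells had been adapted for at least four passages in each medium and pin-dosed with library compounds in DMSO from 47 μM to 0.79 nM in 11 threefold steps.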

[2] = tested on: P12-Ichikawa; assay: as above
Procedure, shortened: as §1

[3] = tested on: SEM cells; assay: as above
Procedure, shortened: as §1

[4] = tested on: NOMO1; assay: AUC of viability dose-response curve (% viability x log10 dose units); higher = less sensitive
Procedure, shortened: (§2)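 Medium-adapted leukemia cells in 1536-well plates, at 500 or 1000 cells/well, were incubated for 48 h at 37°C with library compounds in DMSO at 11 threefold doses from 47 μM to 0.79 nM. CellTiter-Glo One luminescence normalised per plate to DMSO and cell-free wells was fitted with a four-parameter log-logistic model over log10 doses. Area under the curve was integrated from this fit by trapezoidal rule, with curves beyond full viability scaled and failed quality-control curves removed.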

[5] = tested on: P12-Ichikawa; assay: as above
Procedure, shortened: as §2

[6] = tested on: SEM cells; assay: as above
Procedure, shortened: as §2

C[C@](O)(CS(=O)(=O)c1ccc(F)cc1)C(=O)Nc1ccc(C#N)c(C(F)(F)F)c1
cell viability [%]
Conditions	[1]	[2]	[3]
HPLM + 10% dialyzed FBS, 0.000781 µM	106	97.6	93.9
HPLM + 10% dialyzed FBS, 0.00234 µM	100	115	108
HPLM + 10% dialyzed FBS, 0.00702 µM	111	110	104
HPLM + 10% dialyzed FBS, 0.0211 µM	121	120	89.4
HPLM + 10% dialyzed FBS, 0.0632 µM	126	115	116
HPLM + 10% dialyzed FBS, 0.19 µM	128	115	112
HPLM + 10% dialyzed FBS, 0.569 µM	104	124	114
HPLM + 10% dialyzed FBS, 1.71 µM	123	119	116
HPLM + 10% dialyzed FBS, 5.12 µM	115	118	105
HPLM + 10% dialyzed FBS, 15.4 µM	116	114	109
HPLM + 10% dialyzed FBS, 46.1 µM	134	107	93.4
RPMI 5 mM glucose + 10% FBS, 0.000781 µM	103	104	81.3
RPMI 5 mM glucose + 10% FBS, 0.00234 µM	108	110	101
RPMI 5 mM glucose + 10% FBS, 0.00702 µM	128	112	99.7
RPMI 5 mM glucose + 10% FBS, 0.0211 µM	140	109	74.3
RPMI 5 mM glucose + 10% FBS, 0.0632 µM	133	111	88.6
RPMI 5 mM glucose + 10% FBS, 0.19 µM	141	108	97.2
RPMI 5 mM glucose + 10% FBS, 0.569 µM	134	114	102
RPMI 5 mM glucose + 10% FBS, 1.71 µM	128	110	88.4
RPMI 5 mM glucose + 10% FBS, 5.12 µM	126	126	93
RPMI 5 mM glucose + 10% FBS, 15.4 µM	133	119	91
RPMI 5 mM glucose + 10% FBS, 46.1 µM	137	105	75.3
RPMI 5 mM glucose + 10% dialyzed FBS, 0.000781 µM	112	102	105
RPMI 5 mM glucose + 10% dialyzed FBS, 0.00234 µM	119	118	113
RPMI 5 mM glucose + 10% dialyzed FBS, 0.00702 µM	132	126	116
RPMI 5 mM glucose + 10% dialyzed FBS, 0.0211 µM	135	130	73.4
RPMI 5 mM glucose + 10% dialyzed FBS, 0.0632 µM	127	122	119
RPMI 5 mM glucose + 10% dialyzed FBS, 0.19 µM	124	120	111
RPMI 5 mM glucose + 10% dialyzed FBS, 0.569 µM	129	132	132
RPMI 5 mM glucose + 10% dialyzed FBS, 1.71 µM	131	120	122
RPMI 5 mM glucose + 10% dialyzed FBS, 5.12 µM	129	130	96.1
RPMI 5 mM glucose + 10% dialyzed FBS, 15.4 µM	120	113	97.5
RPMI 5 mM glucose + 10% dialyzed FBS, 46.1 µM	131	101	72.7

AUC of viability dose-response curve
Conditions	[4]	[5]	[6]
HPLM + 10% dialyzed FBS	443	472	461
RPMI 5 mM glucose + 10% FBS	460	463	433
RPMI 5 mM glucose + 10% dialyzed FBS	470	470	444

CC(C)c1ccc2c(c1)c(SC(C)(C)C)c(CC(C)(C)C(=O)[O-])n2Cc1ccc(Cl)cc1
cell viability [%]
Conditions	[1]	[2]	[3]
HPLM + 10% dialyzed FBS, 0.000781 µM	110	98.5	104
HPLM + 10% dialyzed FBS, 0.00234 µM	98.7	98.9	96.6
HPLM + 10% dialyzed FBS, 0.00702 µM	110	99.7	107
HPLM + 10% dialyzed FBS, 0.0211 µM	104	103	100
HPLM + 10% dialyzed FBS, 0.0632 µM	109	97	106
HPLM + 10% dialyzed FBS, 0.19 µM	101	98.4	95.3
HPLM + 10% dialyzed FBS, 0.569 µM	111	94.8	103
HPLM + 10% dialyzed FBS, 1.71 µM	95	93.4	101
HPLM + 10% dialyzed FBS, 5.12 µM	82	90.3	106
HPLM + 10% dialyzed FBS, 15.4 µM	95.1	87.5	107
HPLM + 10% dialyzed FBS, 46.1 µM	87.8	90.8	83.2
RPMI 5 mM glucose + 10% FBS, 0.000781 µM	84.2	96.3	101
RPMI 5 mM glucose + 10% FBS, 0.00234 µM	103	91.5	84
RPMI 5 mM glucose + 10% FBS, 0.00702 µM	92.8	100	109
RPMI 5 mM glucose + 10% FBS, 0.0211 µM	90.4	96.2	99.7
RPMI 5 mM glucose + 10% FBS, 0.0632 µM	88.9	96	96.9
RPMI 5 mM glucose + 10% FBS, 0.19 µM	96.9	96.3	102
RPMI 5 mM glucose + 10% FBS, 0.569 µM	105	92.6	89.9
RPMI 5 mM glucose + 10% FBS, 1.71 µM	87.9	92.3	101
RPMI 5 mM glucose + 10% FBS, 5.12 µM	86.3	88.2	93.5
RPMI 5 mM glucose + 10% FBS, 15.4 µM	85.4	85.3	89.5
RPMI 5 mM glucose + 10% FBS, 46.1 µM	85.1	89.9	75
RPMI 5 mM glucose + 10% dialyzed FBS, 0.000781 µM	90.5	87	98.9
RPMI 5 mM glucose + 10% dialyzed FBS, 0.00234 µM	91.5	93.6	103
RPMI 5 mM glucose + 10% dialyzed FBS, 0.00702 µM	91.9	90.3	106
RPMI 5 mM glucose + 10% dialyzed FBS, 0.0211 µM	91.6	88.8	107
RPMI 5 mM glucose + 10% dialyzed FBS, 0.0632 µM	81.5	94.8	97.6
RPMI 5 mM glucose + 10% dialyzed FBS, 0.19 µM	87.7	88.3	104
RPMI 5 mM glucose + 10% dialyzed FBS, 0.569 µM	79	93.8	91.6
RPMI 5 mM glucose + 10% dialyzed FBS, 1.71 µM	81.4	89.3	88.5
RPMI 5 mM glucose + 10% dialyzed FBS, 5.12 µM	78.5	81.7	92.5
RPMI 5 mM glucose + 10% dialyzed FBS, 15.4 µM	81.6	82.2	97.5
RPMI 5 mM glucose + 10% dialyzed FBS, 46.1 µM	75.5	84.5	89.9

AUC of viability dose-response curve
Conditions	[4]	[5]	[6]
HPLM + 10% dialyzed FBS	452	457	473
RPMI 5 mM glucose + 10% FBS	436	445	456
RPMI 5 mM glucose + 10% dialyzed FBS	403	423	455
